The values below come from US7786098B2, “Fluoroalkoxycombretastatin derivatives, method for producing the same and use thereof” (Zhejiang Dade Pharmaceutical Group Co. Ltd., priority 2006, dated 2010).

One assay deals with tubulin. As to conditions: U.S. Pat. No. 5,561,122; WO 9935150; cited from earlier work.
Assay [1] deals with SGC7901 human stomach cancer cell. The assay is described as follows: In vitro antitumor activity evaluation (SRB/MTT, 72 hours), SGC-7901. Conditions: Logit model. The assay is classed as cell-based. The method, then: (§1) The tumor cell cultured in vitro being administrated with fluoroalkoxycombretastatin for 72 hours, the MTT and SRB assays was used to evaluate its inhibition of tumor proliferation.
(§2) Cell groups: H460 human lung cancer cell, SGC7901: human stomach cancer cell, HT-29 human colon cancer cell, Bel-7402 human liver cancer cell.
(§3) Experiment design: cells were warm-cultured with the compounds in different concentrations (100, 10, 1, 0.1, 0.01, 0.001 μM) for 72 hours. SRB assay was used to evaluate the inhibition degree of the compounds to cell proliferation. The inhibition rate was calculated, and IC50 was calculated by using Logit model according to the inhibition rate. And the antitumor activity of compounds in vitro was compared.
(§4) The inhibition rate was expressed using the following equation: Inhibition rate (%)=[(average OD value of control group−average OD value of experimental group)/average OD value of control group]×100%.

Assay [2] concerns H460 human lung cancer cell. The assay is described as follows: In vitro antitumor activity evaluation (SRB/MTT, 72 hours), H460. The assay is classed as cell-based. Conditions: Logit model, read-out: IC50 Non-small cell lung cancer H460. The method, then:
as §1, §2, §3, §4

Assay [3] has as its system HT-29 human colon cancer cell. Description: In vitro antitumor activity evaluation (SRB/MTT, 72 hours), HT-29. The assay is classed as cell-based. As to conditions: Logit model, read-out: IC50 Colon cancer HT29. The procedure: as §1, §2, §3, §4
In assay [4] the test system is Bel-7402 human liver cancer cell. The assay is described as follows: In vitro antitumor activity evaluation (SRB/MTT, 72 hours), Bel-7402. It counts as cell-based. Conditions: Logit model. The method, then:
as §1, §2, §3, §4

Assay [5] has as its system human umbilical vein endothelial cells (HUVEC). Description: In vitro neovascular inhibition evaluation. It counts as cell-based. As to conditions: same method as Example 15 (72 hours). The procedure:
as §1, §3, §4
Anti-angiogenesis effects of fluoroalkoxycombretastatins were assessed in human umbilical vein endothelial cells (HUVEC) using the same method in Example 15.

In a further assay the test system is tumor. As to conditions: within 4 to 6 hours after the treatment of CA-4, cancer patients; cited from earlier work.
Where [6] appears, read: Homo sapiens, SGC-7901, SRB assay.
Setting [7] is: Homo sapiens, NCI-H460, SRB assay.
[8] abbreviates: Homo sapiens, Bel-7402, SRB assay.

Where two headings read alike, the source gives them in different places.

In the case of `COc1ccc(/C=C\c2cc(OC)c(OC)c(OC)c2)c(O)c1O` [CA-1, combretastatin A-1], the “inhibition of tubulin polymerization” value with tubulin is given as “exceptionally strong inhibitors of tubulin polymerization”.

Turning to `COc1ccc(/C=C\c2cc(OC)c(OC)c(OC)c2)cc1O` [CA-4, combretastatin A-4, reference compound], the IC50 (as a rule, the midpoint of a concentration-inhibition curve) amounted to 10 nM in assay [1] (SRB assay); 27 nM in assay [2] (SRB assay); 2380 nM in assay [3] (SRB assay); 750 nM in assay [4] (SRB assay); 3 nM in assay [5]. The blood flow result with tumor is listed as “decreased obviously”. For the same molecule, the tumor cells died entry in the assay on tumor is recorded as “more than 95%”. For the same molecule, the “inhibition of tubulin polymerization” value in the assay with tubulin was “exceptionally strong inhibitors of tubulin polymerization”.

As for `COc1cc(/C=C\c2ccc(OC(F)F)c(O)c2)cc(OC)c1OC` [DD8011, (Z)-1-(3,4,5-trimethoxyphenyl)-2-(3′-hydroxy-4′-difluoromethoxyphenyl)-ethene], the IC50 was 22 nM in assay [1] (setting [6]); 44 nM in assay [2] (setting [7]); 3000 nM in assay [3] (Homo sapiens, HT-29, SRB assay); 920 nM in assay [4] (setting [8]); 2 nM in assay [5] (Homo sapiens, HUVEC).

Turning to `COc1cc(/C=C\c2ccc(OC(F)F)c(N)c2)cc(OC)c1OC` [DD8021, (Z)-1-(3,4,5-trimethoxyphenyl)-2-(3′-amino-4′-difluoromethoxyphenyl)-ethene], the IC50 in assay [1] (setting [6]) is 18 nM; in assay [2] (setting [7]) it was 36 nM; in assay [3] (Homo sapiens, HT-29, SRB assay), 2250 nM; in assay [4] (setting [8]), 830 nM; in assay [5] (Homo sapiens, HUVEC), 2 nM.

Take `COc1cc(/C=C\c2ccc(OCC(F)(F)F)c(O)c2)cc(OC)c1OC` [DD8031, (Z)-1-(3,4,5-trimethoxyphenyl)-2-(3′-hydroxy-4′-trifluoroethoxyphenyl)-ethene]: the IC50 in assay [1] (setting [6]) amounted to 5 nM; in assay [2] (setting [7]), 5 nM; in assay [3] (Homo sapiens, HT-29, SRB assay), 79 nM; in assay [4] (setting [8]), 300 nM; in assay [5] (Homo sapiens, HUVEC), 1 nM.

On to `COc1cc(/C=C\c2ccc(OCC(F)(F)F)c(N)c2)cc(OC)c1OC` [DD8041, (Z)-1-(3,4,5-trimethoxyphenyl)-2-(3′-amino-4′-trifluoroethoxyphenyl)-ethene], for which the IC50 turned out to be 3 nM in assay [1] (setting [6]); 5 nM in assay [2] (setting [7]); 68 nM in assay [3] (Homo sapiens, HT-29, SRB assay); 280 nM in assay [4] (setting [8]); 1 nM in assay [5] (Homo sapiens, HUVEC).
